Reference: patent US5440016A, “Peptides of the formula (KFmoc) ZZZ and their uses” (priority 1993, dated 1995)
Square brackets hold non-standard residues; d marks the D form. Peptide text beside a SMILES is read from it. * marks the point of attachment. Phe(4-NO2) = N[C@@H](Cc1ccc([N+](=O)[O-])cc1)C(=O)O; Met(O2) = CS(=O)(=O)CC[C@H](N)C(=O)O; Fmoc = O=C(OCC1c2ccccc2-c2ccccc21)*; Nle = CCCC[C@H](N)C(=O)O; Orn = NCCC[C@H](N)C(=O)O; Thz = O=C(O)[C@@H]1CSCN1; Nva = CCC[C@H](N)C(=O)O; Abu = CC[C@H](N)C(=O)O; Aib = CC(C)(N)C(=O)O

These compounds were tested on Human red blood cells (RBCs) (assay: Hemolytic activity). Conditions: Table 20, lower part.
Format: cell-based
Protocol: Each assay was carried out in 96-well culture tissue plates. Four wells per plate contain 125 μl of a non-peptide positive control (1% Triton in de-ionized water), and four wells per plate contain 125 μl of a control blank, phosphate buffered saline (PBS). The hemolytic peptide melittin was used as comparative control. The controls served to detect possible contamination and to calculate the percent hemolysis of each peptide. Human red blood cells (RBCs) were washed with PBS and centrifuged to separate them from the serum. The cells were then resuspended in PBS to a final suspension of 0.5% RBC. 125 μl of this suspension was added to the peptides and controls solution. The release of hemoglobin resulting from the cell lysis was determined by measuring the OD at 414 nm of 100 μl of the supernatant.
With `CS(=O)(=O)CC[C@H](NC(=O)[C@@H](Cc1ccccc1)NC(=O)[C@H](Cc1c[nH]c2ccccc12)NC(=O)[C@H](CCCCN)NC(=O)OCC1c2ccccc2-c2ccccc21)C(N)=O` [(KFmoc)Wf(MetO2)-NH2] (Fmoc-KW[dF][Met(O2)]-NH2) the “HD50 (concentration necessary to lyse 50% of the cells)” value was 44 μg/m.

Same assay, conditions: Tables 18-21
In the case of `CS(=O)(=O)CC[C@H](NC(=O)[C@H](CCCCN)NC(=O)[C@H](Cc1c[nH]c2ccccc12)NC(=O)[C@H](CCCCN)NC(=O)OCC1c2ccccc2-c2ccccc21)C(N)=O` [(KFmoc)WK(MetO2)-NH2] (Fmoc-KWK[Met(O2)]-NH2), the “HD50 (concentration necessary to lyse 50% of the cells)” value is reported as 437 µg/mL.
With `NCCCC[C@H](NC(=O)OCC1c2ccccc2-c2ccccc21)C(=O)N[C@@H](Cc1c[nH]c2ccccc12)C(=O)N[C@@H](CCCCN)C(=O)N[C@@H](Cc1ccc([N+](=O)[O-])cc1)C(N)=O` [(KFmoc)WK(NO2 F)-NH2] (Fmoc-KWK[Phe(4-NO2)]-NH2) the “HD50 (concentration necessary to lyse 50% of the cells)” value was 67 µg/mL.
In the case of `CCCC[C@H](NC(=O)[C@H](CCCCN)NC(=O)[C@H](Cc1c[nH]c2ccccc12)NC(=O)[C@H](CCCCN)NC(=O)OCC1c2ccccc2-c2ccccc21)C(N)=O` [(KFmoc)WK(Nle)-NH2] (Fmoc-KWK[Nle]-NH2), the “HD50 (concentration necessary to lyse 50% of the cells)” value is reported as 91 µg/mL.
In the case of `CCC[C@H](NC(=O)[C@H](CCCCN)NC(=O)[C@H](Cc1c[nH]c2ccccc12)NC(=O)[C@H](CCCCN)NC(=O)OCC1c2ccccc2-c2ccccc21)C(N)=O` [(KFmoc)WK(Nve)-NH2] (Fmoc-KWK[Nva]-NH2), the “HD50 (concentration necessary to lyse 50% of the cells)” value is reported as 98 µg/mL.
In the case of `NCCCC[C@H](NC(=O)OCC1c2ccccc2-c2ccccc21)C(=O)N[C@@H](Cc1c[nH]c2ccccc12)C(=O)N[C@@H](CCCCN)C(=O)N1CSC[C@H]1C(N)=O` [(KFmoc)WK(Thiopro)-NH2] (Fmoc-KWK[Thz]-NH2), the “HD50 (concentration necessary to lyse 50% of the cells)” value is reported as 108 µg/mL.
`CC[C@H](NC(=O)[C@H](CCCCN)NC(=O)[C@H](Cc1c[nH]c2ccccc12)NC(=O)[C@H](CCCCN)NC(=O)OCC1c2ccccc2-c2ccccc21)C(N)=O` [(KFmoc)WK(aABA)-NH2] (Fmoc-KWK[Abu]-NH2) was tested, and the “HD50 (concentration necessary to lyse 50% of the cells)” value was 449 µg/mL.
With `CC(C)(NC(=O)[C@H](CCCCN)NC(=O)[C@H](Cc1c[nH]c2ccccc12)NC(=O)[C@H](CCCCN)NC(=O)OCC1c2ccccc2-c2ccccc21)C(N)=O` [(KFmoc)WK(aAIB)-NH2] (Fmoc-KWK[Aib]-NH2) the “HD50 (concentration necessary to lyse 50% of the cells)” value was 447 µg/mL.
With `C[C@H](NC(=O)[C@H](CCCCN)NC(=O)[C@H](Cc1c[nH]c2ccccc12)NC(=O)[C@H](CCCCN)NC(=O)OCC1c2ccccc2-c2ccccc21)C(N)=O` [(KFmoc)WKA-NH2] (Fmoc-KWKA-NH2) the “HD50 (concentration necessary to lyse 50% of the cells)” value was 378 µg/mL.
With `NCCCC[C@H](NC(=O)OCC1c2ccccc2-c2ccccc21)C(=O)N[C@@H](Cc1c[nH]c2ccccc12)C(=O)N[C@@H](CCCCN)C(=O)N[C@@H](CS)C(N)=O` [(KFmoc)WKC-NH2] (Fmoc-KWKC-NH2) the “HD50 (concentration necessary to lyse 50% of the cells)” value was 43 µg/mL.
For `NCCCC[C@H](NC(=O)OCC1c2ccccc2-c2ccccc21)C(=O)N[C@@H](Cc1c[nH]c2ccccc12)C(=O)N[C@@H](CCCCN)C(=O)N[C@@H](Cc1ccccc1)C(N)=O` [(KFmoc)WKF-NH2] (Fmoc-KWKF-NH2), the “HD50 (concentration necessary to lyse 50% of the cells)” value was 105 µg/mL.
In the case of `NCCCC[C@H](NC(=O)OCC1c2ccccc2-c2ccccc21)C(=O)N[C@@H](Cc1c[nH]c2ccccc12)C(=O)N[C@@H](CCCCN)C(=O)NCC(N)=O` [(KFmoc)WKG-NH2] (Fmoc-KWKG-NH2), the “HD50 (concentration necessary to lyse 50% of the cells)” value is reported as 449 µg/mL.
With `NCCCC[C@H](NC(=O)OCC1c2ccccc2-c2ccccc21)C(=O)N[C@@H](Cc1c[nH]c2ccccc12)C(=O)N[C@@H](CCCCN)C(=O)N[C@@H](Cc1c[nH]cn1)C(N)=O` [(KFmoc)WKH-NH2] (Fmoc-KWKH-NH2) the “HD50 (concentration necessary to lyse 50% of the cells)” value was 312 µg/mL.
In the case of `CC[C@H](C)[C@H](NC(=O)[C@H](CCCCN)NC(=O)[C@H](Cc1c[nH]c2ccccc12)NC(=O)[C@H](CCCCN)NC(=O)OCC1c2ccccc2-c2ccccc21)C(N)=O` [(KFmoc)WKI-NH2] (Fmoc-KWKI-NH2), the “HD50 (concentration necessary to lyse 50% of the cells)” value is reported as 141 µg/mL.
In the case of `NCCCC[C@H](NC(=O)[C@H](CCCCN)NC(=O)[C@H](Cc1c[nH]c2ccccc12)NC(=O)[C@H](CCCCN)NC(=O)OCC1c2ccccc2-c2ccccc21)C(N)=O` [(KFmoc)WKK-NH2] (Fmoc-KWKK-NH2), the “HD50 (concentration necessary to lyse 50% of the cells)” value is reported as 469 µg/mL.
In the case of `CC(C)C[C@H](NC(=O)[C@H](CCCCN)NC(=O)[C@H](Cc1c[nH]c2ccccc12)NC(=O)[C@H](CCCCN)NC(=O)OCC1c2ccccc2-c2ccccc21)C(N)=O` [(KFmoc)WKL-NH2] (Fmoc-KWKL-NH2), the “HD50 (concentration necessary to lyse 50% of the cells)” value is reported as 73 µg/mL.
`CSCC[C@H](NC(=O)[C@H](CCCCN)NC(=O)[C@H](Cc1c[nH]c2ccccc12)NC(=O)[C@H](CCCCN)NC(=O)OCC1c2ccccc2-c2ccccc21)C(N)=O` [(KFmoc)WKM-NH2] (Fmoc-KWKM-NH2) was tested, and the “HD50 (concentration necessary to lyse 50% of the cells)” value was 102 µg/mL.
For `NCCCC[C@H](NC(=O)OCC1c2ccccc2-c2ccccc21)C(=O)N[C@@H](Cc1c[nH]c2ccccc12)C(=O)N[C@@H](CCCCN)C(=O)N[C@@H](CC(N)=O)C(N)=O` [(KFmoc)WKN-NH2] (Fmoc-KWKN-NH2), the “HD50 (concentration necessary to lyse 50% of the cells)” value was 204 µg/mL.
For `N=C(N)NCCC[C@H](NC(=O)[C@H](CCCCN)NC(=O)[C@H](Cc1c[nH]c2ccccc12)NC(=O)[C@H](CCCCN)NC(=O)OCC1c2ccccc2-c2ccccc21)C(N)=O` [(KFmoc)WKR-NH2] (Fmoc-KWKR-NH2), the “HD50 (concentration necessary to lyse 50% of the cells)” value was 387 µg/mL.
With `NCCCC[C@H](NC(=O)OCC1c2ccccc2-c2ccccc21)C(=O)N[C@@H](Cc1c[nH]c2ccccc12)C(=O)N[C@@H](CCCCN)C(=O)N[C@@H](CO)C(N)=O` [(KFmoc)WKS-NH2] (Fmoc-KWKS-NH2) the “HD50 (concentration necessary to lyse 50% of the cells)” value was 206 µg/mL.
`C[C@@H](O)[C@H](NC(=O)[C@H](CCCCN)NC(=O)[C@H](Cc1c[nH]c2ccccc12)NC(=O)[C@H](CCCCN)NC(=O)OCC1c2ccccc2-c2ccccc21)C(N)=O` [(KFmoc)WKT-NH2] (Fmoc-KWKT-NH2) was tested, and the “HD50 (concentration necessary to lyse 50% of the cells)” value was 367 µg/mL.
In the case of `CC(C)[C@H](NC(=O)[C@H](CCCCN)NC(=O)[C@H](Cc1c[nH]c2ccccc12)NC(=O)[C@H](CCCCN)NC(=O)OCC1c2ccccc2-c2ccccc21)C(N)=O` [(KFmoc)WKV-NH2] (Fmoc-KWKV-NH2), the “HD50 (concentration necessary to lyse 50% of the cells)” value is reported as 137 µg/mL.
For `NCCCC[C@H](NC(=O)OCC1c2ccccc2-c2ccccc21)C(=O)N[C@@H](Cc1c[nH]c2ccccc12)C(=O)N[C@@H](CCCCN)C(=O)N[C@@H](Cc1c[nH]c2ccccc12)C(N)=O` [(KFmoc)WKW-NH2] (Fmoc-KWKW-NH2), the “HD50 (concentration necessary to lyse 50% of the cells)” value was 37 µg/mL.
With `NCCCC[C@H](NC(=O)OCC1c2ccccc2-c2ccccc21)C(=O)N[C@@H](Cc1c[nH]c2ccccc12)C(=O)N[C@@H](CCCCN)C(=O)N[C@@H](Cc1ccc(O)cc1)C(N)=O` [(KFmoc)WKY-NH2] (Fmoc-KWKY-NH2) the “HD50 (concentration necessary to lyse 50% of the cells)” value was 156 µg/mL.
For `NCCCC[C@H](NC(=O)OCC1c2ccccc2-c2ccccc21)C(=O)N[C@@H](Cc1c[nH]c2ccccc12)C(=O)N[C@@H](Cc1ccc(O)cc1)C(=O)N[C@@H](CCCN)C(N)=O` [(KFmoc)WY(Orn)-NH2] (Fmoc-KWY[Orn]-NH2), the “HD50 (concentration necessary to lyse 50% of the cells)” value was 62 µg/mL.
For `NCCCC[C@H](NC(=O)OCC1c2ccccc2-c2ccccc21)C(=O)N[C@@H](Cc1c[nH]c2ccccc12)C(=O)N[C@@H](Cc1ccc(O)cc1)C(=O)N1CSC[C@H]1C(N)=O` [(KFmoc)WY(Thiopro)-NH2] (Fmoc-KWY[Thz]-NH2), the “HD50 (concentration necessary to lyse 50% of the cells)” value was 488 µg/mL.
`CC[C@H](NC(=O)[C@H](Cc1ccc(O)cc1)NC(=O)[C@H](Cc1c[nH]c2ccccc12)NC(=O)[C@H](CCCCN)NC(=O)OCC1c2ccccc2-c2ccccc21)C(N)=O` [(KFmoc)WY(aABA)-NH2] (Fmoc-KWY[Abu]-NH2) was tested, and the “HD50 (concentration necessary to lyse 50% of the cells)” value was 114 µg/mL.
`NCCCC[C@H](NC(=O)OCC1c2ccccc2-c2ccccc21)C(=O)N[C@@H](Cc1c[nH]c2ccccc12)C(=O)N[C@@H](Cc1ccc(O)cc1)C(=O)N[C@@H](CS)C(N)=O` [(KFmoc)WYC-NH2] (Fmoc-KWYC-NH2) was tested, and the “HD50 (concentration necessary to lyse 50% of the cells)” value was 267 µg/mL.
For `NCCCC[C@H](NC(=O)OCC1c2ccccc2-c2ccccc21)C(=O)N[C@@H](Cc1c[nH]c2ccccc12)C(=O)N[C@@H](Cc1ccc(O)cc1)C(=O)NCC(N)=O` [(KFmoc)WYG-NH2] (Fmoc-KWYG-NH2), the “HD50 (concentration necessary to lyse 50% of the cells)” value was 376 µg/mL.
For `NCCCC[C@H](NC(=O)OCC1c2ccccc2-c2ccccc21)C(=O)N[C@@H](Cc1c[nH]c2ccccc12)C(=O)N[C@@H](Cc1ccc(O)cc1)C(=O)N[C@@H](Cc1c[nH]cn1)C(N)=O` [(KFmoc)WYH-NH2] (Fmoc-KWYH-NH2), the “HD50 (concentration necessary to lyse 50% of the cells)” value was 139 µg/mL.
In the case of `NCCCC[C@H](NC(=O)[C@H](Cc1ccc(O)cc1)NC(=O)[C@H](Cc1c[nH]c2ccccc12)NC(=O)[C@H](CCCCN)NC(=O)OCC1c2ccccc2-c2ccccc21)C(N)=O` [(KFmoc)WYK-NH2] (Fmoc-KWYK-NH2), the “HD50 (concentration necessary to lyse 50% of the cells)” value is reported as 65 µg/mL.
With `NCCCC[C@H](NC(=O)OCC1c2ccccc2-c2ccccc21)C(=O)N[C@@H](Cc1c[nH]c2ccccc12)C(=O)N[C@@H](Cc1ccc(O)cc1)C(=O)N1CCC[C@H]1C(N)=O` [(KFmoc)WYP-NH2] (Fmoc-KWYP-NH2) the “HD50 (concentration necessary to lyse 50% of the cells)” value was 97 µg/mL.
`N=C(N)NCCC[C@H](NC(=O)[C@H](Cc1ccc(O)cc1)NC(=O)[C@H](Cc1c[nH]c2ccccc12)NC(=O)[C@H](CCCCN)NC(=O)OCC1c2ccccc2-c2ccccc21)C(N)=O` [(KFmoc)WYR-NH2] (Fmoc-KWYR-NH2) was tested, and the “HD50 (concentration necessary to lyse 50% of the cells)” value was 45 µg/mL.
With `C[C@@H](O)[C@H](NC(=O)[C@H](Cc1ccc(O)cc1)NC(=O)[C@H](Cc1c[nH]c2ccccc12)NC(=O)[C@H](CCCCN)NC(=O)OCC1c2ccccc2-c2ccccc21)C(N)=O` [(KFmoc)WYT-NH2] (Fmoc-KWYT-NH2) the “HD50 (concentration necessary to lyse 50% of the cells)” value was 53 µg/mL.
